Experimental data as given in patent US6894153B1, “Gene Any-RF; dormancy regulatory substance, process for producing the same and cell regulator for vital cells” (priority 1999, dated 2005).
No end group written: not given here.

Assays:
[1] = tested on: pre-larvae of Antheraea yamamai; test: Bioassay of dormancy-control in pre-larvae destined to awake by KK-42 treatment
Protocol: In general, the activity of a repressive factor is determined using a non-dormancy type insect and evaluated on the basis of the rate of dormancy induction, but there is not any non-dormancy type strain in Antheraea yamamai.
Subsequent to the completion of the treatment for awakening from the dormancy, 0.05 μl each of distilled water was injected to each larva after 24 hours from the completion of the treatment and this group of larvae was used as the control group. In the case of the isolated and purified product, a solution whose concentration was adjusted in such a manner that 100 pmol of the product was present in 0.05 μl of distilled water was injected into each larva, while in the case of the synthetic peptides in the amidated and free acid forms, 100 pmol/0.05 μl each of the peptide was injected into each larva. In any case, the larvae were inspected for the number of larvae falling into dormancy, the number of larvae awakening from the dormancy, the number of died larvae and the average days required till awakening from the dormancy (diapause termination) to thus evaluate the rate of larvae awakening from the dormancy.
After 24 hours from the treatment with the KK-42 solution, 0.05 μl of distilled water was injected to the pre-larvae, followed by a second distilled water injection thereto after additional 24 hours and a third distilled water injection after additional 24 hours from the second distilled water injection (in the following Table 2, they are referred to as control 1, 2 and 3 respectively). And the rate of pre-larvae awaken from the dormancy (the rate of diapause termination) was evaluated in each case.

[2] = tested on: rat hepatoma cells (dRLh84); test: Assay for cancer cell growth-control (viable cell count, trypan blue); assay type: cell-based
Protocol: (§1) Rat hepatoma cells (dRLh 84) were used and these cells were cultivated in Dulbecco's modified Eagle medium (DMEM) containing 4 mM glutamine, 50U/ml penicillin, 100 μg/ml kanamycin, and supplemented with 10% neonatal calf serum. In respect of the foregoing cells, the cultivation thereof was carried out at 37° C. in a wet atmosphere including 5% CO2.
The used culture medium was removed from a (100 mm dish (generally schale) in which cells were cultured and the dish was once washed with PBS(−) (prepared by removing Ca and Mg ions from phosphate buffered saline). To the dish, there was gently added 1.5 ml of a 10% trypsin solution so that the solution uniformly spreaded throughout the dish, 1 ml of the solution was removed, the dish was maintained at 37° C. for 5 minutes and it was confirmed with a microscope that the cells were pealed off from the bottom of the dish. Then 9.5 ml of a fresh DEME medium was added to the dish and the cells were separated into individual cells by pipetting to thus suspend the cells in the medium. Dishes of Φ100 mm were inoculated with this suspension in a dilution of 1/20 (total amount: 10 ml), followed by introduction thereof into an incubator and cultivation for 24 hours. Each peptide was added to these dishes in a predetermined concentration, followed by cultivation at 37° C., determination of the number of cells using a blood counting plate after 24 and 48 hours from the initiation of the cultivation to thus inspect the peptides for their cell growth-control functions.
Rat hepatoma cells (dRLh84, 3×10^5 cells) were cultured in a culture medium, to which the peptide (DILRG—NH2, SEQ ID NO:5, the peptide of SEQ ID NO:1 having the C-terminal amidated or DILRG—COOH, SEQ ID NO:1) was added in a predetermined amount (0, 50, 100, 150, 200 μg/ml) in the presence of 5% CO2 at 37° C. for 40 hours. Thereafter, the culture medium was treated with trypan blue to determine the […] cell count.
Thus, the cultivation time was extended to investigate the relation between the proliferation ability of cancer cells and the cultivation time using the physiologically active substance of the present invention. The method for cultivation used herein was identical to that used in Example 7. The cultivation time was extended up to 72 hours. The cultivation of 3×10^5 cells was carried out using a culture medium supplemented with PBS(−) for a control group and a cell culture medium for an experimental group, to which 200 μg/ml of the peptide (DILRG—NH2) was added, in the presence of 5% CO2 at 37° C. for 24, 48 and 72 hours, respectively. Thereafter, the culture medium was treated with trypan blue to determine the viable cell count.
The fact that the physiologically active substance derived from insects can results obtained in Examples 6, 7 and 8. […] Thus, we investigated which part of the 5 amino acid sequence of this substance is indispensable to the cell growth-control activity from the structural standpoint. Cells were cultured by the same method used in Example 6. More specifically, in the control group, there were used a culture medium supplemented with PBS(−) and FMRF—NH2(SEQ ID NO:4), which is widely distributed from echinoderms to insects and mammals, which comprises 4 amino acid residues and whose C-terminal is amidated. In an experimental group, there was used a culture medium supplemented with the complete synthetic peptide (DILRG—NH2) or an incomplete synthetic peptide (ILRG—NH2) free of the aspartic acid residue at the N-terminal in a concentration of 200 μg/2.6×10^5 cells. The control group and the experimental group were cultured at 37° C. for 48 hours in the presence of 5% CO2. Thereafter the cells were stained with trypan blue to thus determine the number of cells.

[3] = tested on: rat hepatoma cells (dRLh84); test: Morphological observation of cultured cancer cells (inverted microscope); assay type: cell-based; details: 200 μg/ml
Protocol: as §1
The inhibitory effect of the penta-peptide on the growth of cancer cells was examined as follows. As the cancer cells, there were used rat hepatoma cells (dRLh84), which were relatively easily available and whose cultivation was easy. To make clear the relation between the physiologically active substance (RF—NH2) of the present invention and the growth of cancer cells, cancer cells were cultured in a cell culture medium supplemented with PBS(−) for a control group and culture mediums supplemented with 200 μg/ml each of the peptide whose C-terminal was amidated, i.e., RF—NH2 and the peptide whose C-terminal was in a free acid form, i.e., RF—COOH, respectively, for the experimental groups. The number of cultured cells was adjusted to 3 to 5×10^5, and the cells were cultured with or without a predetermined amount of each peptide in the presence of 5% CO2 at 37° C. […]

[4] = tested on: rat hepatoma cells (dRLh84); test: Flow cytometric analysis of cell cycle (propidium iodide DNA content); assay type: cell-based; details: 200 μg/ml; 48 hours
Protocol: The cells treated with each peptide was fixed at 4° C. for 4 hours using 70% ethanol. The fixed cells were washed with PBS(−), then treated with 2 mg/ml of RNaseA at 37° C. for 30 minutes to thus […] the RNA. Thereafter, the cells were stained with propidium iodide (25 μg/ml) for not less than 30 minutes and filtered through a nylon mesh. Then the intensity of fluorescence (DNA content per cell) observed for 10,000 cells was analyzed using a flow cytometer ([…] available from Becton Dickinson Company).
The fact that the physiologically active substance of the present invention can inhibit the cell growth ability of the rat hepatoma is substantiated experimentally by the results obtained in Examples 6, 7 and 8 (FIGS. 9, 10 and 11). Thus, we tried to elucidate the mechanism of the inhibition. The peptide (DILRG—NH2)(200 μg/ml) was added to the culture medium under the same conditions used in Example 6 and the cells were cultured, followed by fixing the cells after cultivation of 48 hours with ethanol and then staining the cells with propidium iodide. In addition, the same procedures used above were repeated using a culture medium supplemented with PBS(−) as a control group. The DNA content in the cells was analyzed using a flow cytometer. The flow cytometric analysis employed for this purpose comprises the step of staining cells with propidium iodide, which is a fluorescent dye capable of being linked with DNA to thus determine the DNA content of the cell and this method permits the analysis of the cell cycle control. More specifically, the biological cell multiplies by cell division while undergoing the following cycle change: G0/G 1. S (DNA replication stage) and M stage (cell division stage) in this order. FIGS. 12(A) and 12(B) are graphs each showing the results obtained by determining the DNA content in each cancer cell using a flow cytometer and then analyzing the results. It can be predicted from the data shown in FIGS. 12(A) and 12(B), i.e., the cell cycle change observed for the control group (PBS(−) was used, FIG. 12(A)) and that observed for the experimental group (RF—NH2 was used, FIG. 12(B)), that the pattern of the rat hepatoma cell cycle is differently affected by the presence and absence of the peptide.
Then the patterns observed in FIGS. 12(A) and 12(B) were examined in detail. In the G0/G1 stage, the DNA content is 2n, while that observed in the M stage is two times that observed for the G0/G1 stage or 4n. In the analysis of data shown in FIGS. 12(A) and 12(B), the DNA contents of 2n and 4n correspond to peaks or wide peaks at 360 and 700, respectively. If it is assumed that the analyzed pattern of the cell cycle change shown in FIGS. 12(A) and 12(B) comprises a linear coupling of peaks specific to G0/G1, S, M stages, the rate of cells in each stage can be obtained by dividing the pattern into these individual components.

[5] = Acute toxicity test in rats; assay type: in vivo
Protocol: (§2) The foregoing peptide of the present invention as the physiologically active substance is almost free of an) side effect in the living body as compared with the conventional Cecropin and Pierisin and any acute toxicity is not observed at all. More specifically, the peptide of the present invention was administered to rats and mice through two routes, i.e., oral and percutaneous routes, in an amount of 0.5 g per unit body weight (1 kg) and the acute toxicity test was carried out according to the predetermined method. […] Moreover, the testis of the genital organ was removed from each animal after the acute toxicity test and the tissue was examined with a microscope. […] In addition, the peptide of the present invention is a low molecular weight penta-peptide and therefore, it never causes any antigen-antibody reaction and it is safe.

[6] = Acute toxicity test in mice; assay type: in vivo
Protocol: as §2

[7] = tested on: cultured cells of lymphoma and leukemia; details: Moore et al. 1994; cited from earlier work
[8] = 100 pmol/0.05 μl injected once 24 hours after KK-42 treatment
[9] = 100 pmol/0.05 μl injected once 24 hours after KK-42 treatment, N 10 × 3
[10] = Table 2, 100 pmol/0.05 μl × 1, N 10 × 3
[11] = Table 2, 100 pmol/0.05 μl × 2 (24 hours apart), N 10 × 3
[12] = Table 2, 100 pmol/0.05 μl × 3 (24 hours apart), N 10 × 3
[13] = Example 10, 200 μg/2.6×10^5 cells, 48 hours
[14] = after the acute toxicity test, 0.5 g/kg oral and percutaneous
[15] = oral and percutaneous routes, 0.5 g per unit body weight (1 kg)

With H-DILRG-NH2 [Asp-Ile-Leu-Arg-Gly-NH2] the “No. of Days (Time (day) required till Awakening)” value [1, 8] was 6.72 days, the “Rate (the rate of larvae awakening from dormancy)” value [1, 8] was 53.3% and the “Number of Insects Awa (Awakening from Dormancy)” value [1, 9] was 16. For the same substance, the “Number of Insects Died” value [1, 9] was 0, the “Number of Insects Dor (Dormancy)” value [1, 9] was 14 and the “Rate of Diapause Termination” value ([1]; Table 2, 100 pmol/0.05 μl × 1) was 53.3%. For the same substance, the “Number of Insects Awa (Diapause Termination)” value [1, 10] was 16, the “Number of Insects Died” value [1, 10] was 0 and the “Number of Insects Dor (Dormancy)” value [1, 10] was 14. For the same substance, the “Rate of Diapause Termination” value ([1]; Table 2, 100 pmol/0.05 μl × 2 (24 hours apart)) was 30%, the “Number of Insects Awa (Diapause Termination)” value [1, 11] was 9 and the “Number of Insects Died” value [1, 11] was 0. For the same substance, the “Number of Insects Dor (Dormancy)” value [1, 11] was 21, the “Rate of Diapause Termination” value ([1]; Table 2, 100 pmol/0.05 μl × 3 (24 hours apart)) was 13.3% and the “Number of Insects Awa (Diapause Termination)” value [1, 12] was 4. For the same substance, the “Number of Insects Died” value [1, 12] was 0, the “Number of Insects Dor (Dormancy)” value [1, 12] was 26 and the viable cell count ([2]; Example 7, 50 μg/ml, 3×10^5 cells cultured 40 hours) was “markedly reduced”. For the same substance, the viable cell count ([2]; Example 7, 200 μg/ml, 3×10^5 cells cultured 40 hours) was 7.7×10^5 cells, the “viable cell count relative to that observed for the control group” value ([2]; Example 7, 200 μg/ml, 40 hours) was “a half” and the viable cell count ([2]; Example 8, 200 μg/ml, from 3×10^5 cells within 72 hours) was 8×10^5 cells. The “factor of increase of the number of cells” value ([2]; Example 8, 200 μg/ml, within 72 hours) was 2.7, the viable cell count [2, 13] was ~7.7×10^5 cells and the “cancer cell growth after transfer to fresh culture medium without peptide” value ([2]; after cultivation for 48 hours with 200 μg/ml peptide) was “rapidly began to proliferate like the control group”. For the same substance, the “number of cancer cells compared with the initiation of the cultivation (0 hour)” value ([3]; after 24 and 48 hours) was “not increased at all”, the “shape of the cells” value ([3]; after 48 hours) was “changed from a spindle-like shape to a circular shape” and the “G0/G1 stage rate higher than that observed for the control group” value [4] was “not less than 30%”. The “Rate of cells in G0/G1 Stage” value [4] was 66.07%, the “Rate of cells in G2/M Stage” value [4] was 12.10% and the “Rate of cells in S Stage” value [4] was 21.84%. The “S stage rate lower than that observed for the control group” value [4] was “not less than 40%”, the “testis tissue examined with a microscope” value [5, 14] was “any abnormality was not observed at all” and the “acute toxicity such as convulsion and vomiting” value [5, 15] was “not observed any acute toxicity”. For the same substance, the “testis tissue examined with a microscope” value [6, 14] was “any abnormality was not observed at all” and the “acute toxicity such as convulsion and vomiting” value [6, 15] was “not observed any acute toxicity”.
For “1-benzyl-5-[(E)-2,6-dimethyl-1,5-heptadienyl] [KK-42, reference compound]”, the “larvae awakened from the dormancy” value ([1]; 0.1 μg/0.5 μl solution in acetone applied on the ventral portion of each larva) was 100%.
In the case of Cecropin, the “anti-tumor activity to cultured cells” value [7] is listed as “anti-tumor activity”.
For Ile-Leu-Arg-Gly (ILRG-NH2) [ILRG—NH2], the growth-inhibitory effect [2, 13] was “sufficient growth-inhibitory effect” and the viable cell count [2, 13] was 8.4×10^5 cells.
With DILRG-OH [Asp-Ile-Leu-Arg-Gly-COOH] the “Number of Insects Died” value [1, 9] was 0.
